# Measurements published in PubChem BioAssay (NCI).
# “And” between values parts separate entries of the source, which are not always exact repeats. Equal entries are not always repeated.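 Dose response: 5 concentrations. Exposure: 48 h. Format: 96-well plates. Endpoint: linear interpolation; highest concentration if not reached. The concentration for 50% growth inhibition is given as GI50. Definition used: TGI = concentration required for complete inhibition of growth.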
# Assays:
# Experiment in all cases: NCI anticancer screen, dose series, 48 h
# COLO 205 colon = test system: COLO 205 colon
# A498 renal = test system: A498 renal
# U251 CNS = test system: U251 CNS
# M14 melanoma = test system: M14 melanoma
# SK-MEL-28 melanoma = test system: SK-MEL-28 melanoma
# HCT-15 colon = test system: HCT-15 colon
# NCI-H23 lung = test system: NCI-H23 lung
# HOP-62 NSCLC = test system: HOP-62 NSCLC
# HT29 colon = test system: HT29 colon
# MDA-MB-435 = test system: MDA-MB-435
SMILES,TGI (COLO 205 colon) [µM],TGI (A498 renal) [µM],TGI (U251 CNS) [µM],TGI (M14 melanoma),TGI (SK-MEL-28 melanoma) [µM],TGI (HCT-15 colon),TGI (NCI-H23 lung) [µM],TGI (HOP-62 NSCLC) [µM],TGI (HT29 colon) [µM],GI50 (COLO 205 colon) [µM],GI50 (U251 CNS) [µM],GI50 (M14 melanoma) [µM],GI50 (SK-MEL-28 melanoma) [µM],GI50 (MDA-MB-435) [µM],TGI (MDA-MB-435) [µM],GI50 (HCT-15 colon) [µM],GI50 (NCI-H23 lung) [µM],GI50 (HOP-62 NSCLC) [µM],GI50 (HT29 colon) [µM],GI50 (A498 renal) [µM]
O=c1c2ccccc2nc(/C=C(\O)c2ccncc2)n1-c1ccc(Cl)cc1,> 100,> 100,> 100,> 100 µM,> 100,> 100 µM,> 100,> 100,> 100,–,–,–,–,–,–,–,–,–,–,–
CCOC(=O)C(N=C(c1ccccc1)c1ccccc1)N(C(=O)OC(C)(C)C)C(=O)OC(C)(C)C (centres undefined),> 100,–,> 100,–,> 100,> 100 µM,> 100,–,> 100,–,–,–,–,–,–,–,–,–,–,–
CCNC(=O)Nc1ccc(Oc2ccnc3ccc4c(ccn4C)c23)cc1,> 100,–,44.7,> 100 µM,> 100,> 100 µM,> 100,> 100,> 100,29.8,20.6,> 100,9.33,> 100,> 100,37.9,> 100,46.9,44.6,–
CN(C)CCCCC(C(=O)CBr)(c1ccccc1)c1ccccc1,3.95,–,11.5,3.95 µM,3.49,3.37 µM,10.8,23.6,3.94,1.78,3.07,1.5,1.77,2.45,10.5,1.64,2.81,8.06,1.92,–
O=C(NCc1cccnc1)C1COc2cc(-c3cc(=O)c4ccccc4o3)ccc2O1 (centres undefined),> 100,99.7,> 100,> 100 µM,> 28.7,> 100 µM,> 100,24.8,> 100,–,–,–,–,–,–,–,–,–,–,–
Cc1cc(C)n(-c2ccnc3cc(Cl)ccc23)n1,> 100,> 100,> 100,> 100 µM,> 100,> 100 µM,> 100,> 100,> 100,–,–,–,–,–,–,–,–,–,–,–
N#C[Se]CCN1C(=O)C2C(C1=O)[C@H]1C=C[C@@H]2S1 (some centres undefined),6.42,3.33,4.13,3.62 µM,5.02,5.77 µM,6.51,–,8.98,2.45,1.8,1.54,1.92,1.7,3.26,2.2,2.46,–,2.65,1.51
COC(=O)c1ccccc1N1C(=O)Cc2ccccc2C1=O,> 100,–,> 100,–,> 100,> 100 µM,> 100,–,> 100,–,–,–,–,–,–,–,–,–,–,–
C/C(CC(=O)Nc1cc(C)ccc1C)=N/N=C(N)N,> 100,> 100,> 100,> 100 µM,> 100,–,> 100,> 100,> 100,–,–,–,–,–,–,–,–,–,–,–
COc1cc2c(c(OC)c1OC)-c1ccc(OC)c(=O)cc1[C@@H](NC(C)=O)CC2,–,–,–,> 100 µM and 32 µM,> 625,> 100 µM and 25.8 µM and 50.4 µM,–,> 625,–,–,–,–,–,–,< 0.01,–,–,0.866,–,–
CC1(Br)CC2OC3(Br)C=CC(C)(O)C2(CC1=O)C3(C)C (centres undefined),> 100,> 100,> 100,> 100 µM,> 100,> 100 µM,> 100,> 100,> 100,–,–,–,–,–,–,–,–,–,–,–
O=C1[C@@H]2C(c3ccccc3[N+](=O)[O-])=[N+](c3ccccc3)O[C@@H]2C(=O)N1c1ccc(Cc2ccc(N3C(=O)[C@H]4C(c5ccccc5[N+](=O)[O-])=[N+](c5ccccc5)O[C@H]4C3=O)cc2)cc1,> 100,> 100,> 100,49.9 µM,> 100,> 100 µM,> 100,> 100,> 100,–,–,–,–,–,–,–,–,–,–,–
O=C(c1ccccc1)C(c1ccccc1)C1(O)C(=O)Nc2ccc([N+](=O)[O-])cc21 (centres undefined),> 100,> 100,> 100,> 100 µM,> 100,> 100 µM,> 100,> 100,–,–,–,–,–,–,–,–,–,–,–,–
CCC(O)C1Cc2c(C)cc3c(c2O1)C(=O)c1ccccc1C3=O (centres undefined),33.1,70.3,> 100,> 100 µM,> 100,> 100 µM,> 100,> 100,> 100,–,–,–,–,–,–,–,–,–,–,–
O=C(O)COc1ccc(C(=O)/C(SS/C(C(=O)c2ccc(OCC(=O)O)c(Cl)c2Cl)=C2\C=C(c3ccc(Cl)cc3)SS2)=C2/C=C(c3ccc(Cl)cc3)SS2)c(Cl)c1Cl,1.27,> 100,15.4,26.3 µM,56.7,18.1 µM,40.8,> 100,> 100,–,–,–,–,–,–,–,–,–,–,–
O=C(OC1CCC2OOC1O2)c1ccc([N+](=O)[O-])cc1 (centres undefined),> 100,> 100,> 100,> 100 µM,> 100,> 100 µM,> 100,> 100,> 100,–,–,–,–,–,–,–,–,–,–,–
N#CCCCCCOCCOCCOCCOCCOCCCCCC#N,> 100,> 100,> 100,> 100 µM,> 100,> 100 µM,> 100,> 100,> 100,–,–,–,–,–,–,–,–,–,–,–
COc1ccc(NC(=O)CC/C(CC(=O)c2ccco2)=N/NC(N)=S)cc1,> 100,> 100,> 100,> 100 µM,–,> 100 µM,> 100,> 100,> 100,–,–,–,–,–,–,–,–,–,–,–
NC1CCCCC1N.O=[Se]([O-])[O-].[Pt+4] (centres undefined),17.5,24.8,15.7,> 52.2 µM,32.9,> 45.5 µM,17.1,> 51.4,17.5,1.19,0.666,2.51,2.01,–,–,0.747,1.51,2.52,0.169,1.76
COc1ccc2cc(C(=O)/C=C/c3ccc(N(C)C)cc3)ccc2c1,> 100,–,> 100,> 100 µM,> 100,> 100 µM,> 100,> 100,> 100,> 100,58.9,> 100,> 100,93.1,> 100,57.3,41.6,> 100,> 100,–
CCCCNC(=O)C1C(=O)N(CCCC)C(=O)/C1=N\N (centres undefined),> 100,> 100,> 100,> 100 µM,> 100,> 100 µM,> 100,> 100,> 100,–,–,–,–,–,–,–,–,–,–,–
Nc1nc(Cl)cc(NCC(O)CO)n1 (centres undefined),> 100,> 100,> 100,> 100 µM,> 100,> 100 µM,> 100,> 100,> 100,–,–,–,–,–,–,–,–,–,–,–
CCCCCCCCCCCC(=O)N1CCN(C(C)=O)CC1,33.6,> 100,> 100,33 µM,–,> 100 µM,40.8,36.4,–,18.1,50.5,17.6,–,20.4,40.9,40.2,19.5,18.1,–,62.7
COc1cc(-c2oc3c(OC)cc(OC)c(O)c3c(=O)c2OC)cc(OC)c1OC,> 100,–,> 100,> 100 µM,> 100,–,> 100,6.62,> 100,–,–,–,–,–,> 100,–,–,–,–,–
COc1ccc(Sc2nc3cc(N)cc(N)c3nc2-c2ccccc2)cc1,> 100,> 100,> 100,> 100 µM,> 100,–,> 100,> 100,–,19.3,> 100,> 100,24.4,> 100,> 100,–,> 100,> 100,–,> 100
CCCNCC(=O)O[C@]1(CC)C(=O)OCc2c1cc1n(c2=O)Cc2cc3ccccc3nc2-1,3.07,0.849,0.244,1.82 µM,32.8,–,0.321,–,> 100,–,–,–,–,–,–,–,–,–,–,–
CC[C@@]1(O)C(=O)OCc2c1cc1n(c2=O)Cc2cc3cccc([N+](=O)[O-])c3nc2-1,25.9,5.03,3.07,12.5 µM,> 100,–,4.19,0.582,> 100,4.63,0.312,1.05,43.9,–,–,–,0.486,0.142,2.18,1.43
C(=N\Nc1ccccc1)/c1nc2ccccc2nc1/C=N/Nc1ccccc1,–,31.1,–,30 µM,31.7,25.8 µM,27.2,34.6,23.5,–,–,–,–,–,–,–,–,–,–,–
O=C([O][Hg][CH2]C1OCCOC1[CH2][Hg][O]C(=O)c1ccccc1)c1ccccc1 (centres undefined),3.27,34.8,28.4,9.52 µM,16.8,24.9 µM,21.3,–,10.6,1.82,15.1,5.2,5.13,15.9,29.3,8.95,8.21,–,5.77,20.3
